According to patent publication US20240208901A1, “Deuterated 3,3'-Diselenodipropionic Acid (DSePA) and Its Use as an Anticancer or Radioprotective Agent” (Secretary, Department of Atomic Energy, priority 2022, published 2024):

Tests used:
Type in all cases: cell-based, human
A549 cells [1] = experiment: Clonogenic assay in A549 cells; conditions: seven days treatment, read-out: IC50 to inhibit growth (survival fraction)
Procedure: (§1) Further, clonogenic assay is considered as the gold standard method for evaluating the anticancer activity of any compound and is also a good indicator of the in vivo efficacy of any anticancer compound. Therefore, the therapeutic index of DSePA and D-DSePA in A549/WI-38 cells was also validated by employing the clonogenic assay. For this, A549/WI-38 cells were treated with the varying concentrations (0.1-2 μM)/(1-500 μM) of DSePA/D-DSePA for seven days and the survival fraction was calculated by counting the number of surviving clones (FIG. 11A). The plot of survival fraction verses the concentration of DScPA/D-DSCPA was used to estimate the IC50 of above compounds to inhibit the growth of A549/WI-38 cells. […] This clearly confirmed that deuteration of DScPA reduced its toxicity in normal cells without compromising its efficacy in cancer cells. […]
(§2) Clonogenic assay—Clonogenic assay was performed according to the method reported previously. […] After 7 days, colonies were fixed with absolute methanol for 5 min, stained with 0.5% crystal violet for 5 min, washed with distilled water to remove excess stain and counted manually under a stereo microscope. […] The plating efficiency and the survival fraction under irradiated and drug treated conditions were calculated using following formulae: […]
(§3) The plating efficiency of A549 and WI38 cells was calculated by seeding ˜300 and ˜500 cells respectively. […]

WI-26 VA4 cells = experiment: MTT assay, toxicity in non-cancerous lung fibroblast WI-26 VA4 cells; conditions: 48 h post treatment, read-out: IC50 for inhibiting the cell proliferation
Source text: (§4) Therefore, D-DSePA was compared with un-deuterated DSePA for its anticancer activity in A549, H1975 and H3122 cell lines which are representative of NSCLC. […] The plot of percent (%) cytotoxicity (100-% viability) versus the concentration of DSePA/D-DSePA was used to estimate the half maximum concentration (IC50) of above compounds to inhibit the proliferation of cells. […] Similarly, the toxicity of DSePA/D-DSePA was studied in non-cancerous lung fibroblast cells, WI-38 and WI-26 VA4 in the concentration range of 0.1 to 1000 μM at 48 h post treatment by MTT assay (FIG. 9D and 9E). […] Employing these values, the therapeutic index (IC50 in normal lung cell/IC50 in lung cancer cell) of DSePA and D-DSePA in different pairs of normal versus cancerous cells (viz., A549/WI-38, A549/WI-26 VA4, H1975/WI-38, H1975/WI-26 VA4, H3122/WI-38 and H3122/WI-26 VA4) was calculated (Table-3). […]
(§5) MTT Assay—To evaluate the anti-proliferative effect of D-DScPA and DScPA, Cells (˜5×10^3) suspended in 100 μl of complete culture medium were seeded in each well of 96 well plates. […] The percentage (%) cytotoxicity was calculated from the decrease in absorbance at 570 nm of treated groups as compared to that of control group. […] The therapeutic index was calculated by normalizing the IC50 concentration of D-DSePA/DSePA in non-cancerous cells to that in cancerous cells.

A549 cells [2] = experiment: MTT assay, anti-proliferative effect in A549 cells; conditions: 48 h treatment, read-out: IC50 to inhibit cell proliferation
Procedure: (§6) Therefore, D-DSePA was compared with un-deuterated DSePA for its anticancer activity in A549, H1975 and H3122 cell lines which are representative of NSCLC. For this, above cells were treated with the varying concentrations (0.1-100 μM) of DSePA/D-DSePA for 48 h and the cell viability was determined by MTT assay (FIG. 9A-C). The plot of percent (%) cytotoxicity (100-% viability) versus the concentration of DSePA/D-DSePA was used to estimate the half maximum concentration (IC50) of above compounds to inhibit the proliferation of cells. […] Employing these values, the therapeutic index (IC50 in normal lung cell/IC50 in lung cancer cell) of DSePA and D-DSePA in different pairs of normal versus cancerous cells (viz., A549/WI-38, A549/WI-26 VA4, H1975/WI-38, H1975/WI-26 VA4, H3122/WI-38 and H3122/WI-26 VA4) was calculated (Table-3). […]
as §5

H1975 cells = experiment: MTT assay, anti-proliferative effect in H1975 cells; conditions: 48 h treatment, read-out: IC50 to inhibit cell proliferation
Procedure: as §6, §5

WI-38 cells [3] = experiment: MTT assay, toxicity in non-cancerous lung fibroblast WI-38 cells; conditions: WI38 cells, 48 h post treatment, read-out: IC50 for inhibiting the cell proliferation
Source text: as §4, §5

WI-38 cells [4] = experiment: Clonogenic assay in WI-38 cells; conditions: seven days treatment, read-out: IC50 to inhibit growth (survival fraction)
Procedure: as §1, §2, §3

H3122 cells = experiment: MTT assay, anti-proliferative effect in H3122 cells; conditions: 48 h treatment, read-out: IC50 to inhibit cell proliferation
Procedure: as §6, §5

For O=C(O)CC[Se][Se]CCC(=O)O [D-DSePA, 3,3′-diselenodipropionic acid-D8], the IC50 (A549 cells [1]) was 0.9 ± 0.03 µM, the IC50 (WI-26 VA4 cells) was 550 ± 10.2 µM and the IC50 (A549 cells [2]) was 15.2 ± 0.9 µM. The IC50 (H1975 cells) was 4.6 ± 0.7 µM, the IC50 (WI-38 cells [3]) was 1000 ± 6.3 µM and the IC50 (WI-38 cells [4]) was 35.5 ± 0.02 µM. For the same compound, the IC50 (H3122 cells) was 46.5 ± 2.9 µM.
